Read-outs that look alike come from different tables or passages of the source.
Tests used:
[1] = Pooled JACKPOT2/JACKPOT3 SAD analysis of the effect of race on PK; assay type: in vivo, human; conditions: for Dose normalized AUC0-inf, GLS Mean / Dose normalized AUC0-t, GLS Mean / Dose normalized Cmax, GLS Mean: ANCOVA; for Vd/F / half-life: human, plasma, oral
Method: Assessment of inter-ethnic difference of golidocitinib PK: The primary analyses of AUC0–t, AUC0–inf, and Cmax (log-transformed dose-normalized PK parameters) were performed using an analysis of covariance (ANCOVA) model, with the ethnic group as a fixed effect and dose (log scale) as a covariate. The analysis of variance (ANOVA) model was built for the secondary PK endpoints (log-transformed CL/F, Vz/F, and t1/2) with the ethnic group as a fixed effect. The Black/Caucasian and Asian/Caucasian ratios of the geometric mean were calculated by taking the antilogarithm of the difference between group means and corresponding 90% confidence intervals (CIs) in the log scale. Other analyses are descriptive, and no formal statistical comparison is performed for pooled JACKPOT2 and JACKPOT3 data. As the study design of SAD cohorts in JACKPOT2 and JACKPOT3 studies was similar, pooled analysis was performed. The race factor is the focus potentially used for the exposure comparison. A total of 62 participants were included in the analysis (11 Caucasians, 19 Blacks and 32 Asians).

[2] = In vitro binding to human plasma; assay type: in vitro ADME

Q: With `COc1nn(C)cc1Nc1nccc(-c2c[nH]c3c(NC(=O)[C@@H](C)N4CCN(C)CC4)cccc23)n1` [golidocitinib, (2R)-N-[3-[2-[(3-Methoxy-1-methyl-pyrazol-4-yl)amino]pyrimidin-4-yl]-1H-indol-7-yl]-2-(4-methylpiperazin-1-yl)propenamide] as the molecule, how does the “CL/F, Geometric Mean (CV%)” value ([1]; Asian, n 24, single dose) read?
A: Its value is 20.07 (21.59) L/hr.

Q: And the “Dose normalized AUC0-inf, Geometric Mean (CV%)” value (from here on “Dose normalized AUC0-inf … (CV%)”) ([1]; Asian, n 24, single dose)?
A: Its value is 49.82 (21.63) hr*ng/mL/mg.

Q: And the “Dose normalized AUC0-t, Geometric Mean (CV%)” value (“Dose normalized AUC0-t … (CV%)” for short) ([1]; Asian, n 24, single dose)?
A: Its value is 48.15 (23.34) hr*ng/mL/mg.

Q: What about the “Dose normalized Cmax, Geometric Mean (CV%)” value (shortened to “Dose normalized Cmax … (CV%)”) ([1]; Asian, n 24, single dose) of the same molecule?
A: Its value is 1.70 (24.14) ng/mL/mg.

Q: What about the “Dose normalized AUC0-inf, GLS Mean” value ([1]; Asian, single dose) of the same molecule?
A: The value was 49.76 ng·h/mL/mg.

Q: What about the “Dose normalized AUC0-t, GLS Mean” value ([1]; Asian, single dose) of the same molecule?
A: The value was 47.50 ng·h/mL/mg.

Q: What about the “Dose normalized Cmax, GLS Mean” value ([1]; Asian, single dose) of the same molecule?
A: Its value is 1.66 ng/mL/mg.

Q: And the “CL/F, GLS Mean” value ([1]; Asian, single dose, ANOVA)?
A: Its value is 20.07 L/h.

Q: What about the “CL/F, Ratio of GLS means” value ([1]; Asian/Caucasian) of the same molecule?
A: Its value is 0.88.

Q: What about the “Dose normalized AUC0-inf, Ratio of GLS means” value ([1]; Asian/Caucasian) of the same molecule?
A: Its value is 1.2.

Q: What about the “Dose normalized AUC0-t, Ratio of GLS means” value ([1]; Asian/Caucasian) of the same molecule?
A: The value was 1.1.

Q: And the “Dose normalized Cmax, Ratio of GLS means” value ([1]; Asian/Caucasian)?
A: The value was 1.4.

Q: What about the “Vz/F, Ratio of GLS means” value ([1]; Asian/Caucasian) of the same molecule?
A: The value was 0.76.

Q: What about the “t1/2, Ratio of GLS means” value ([1]; Asian/Caucasian) of the same molecule?
A: The value was 0.87.

Q: What about the “Dose normalized AUC0-inf … (CV%)” value ([1]; Black, n 10 (5 mg group not included), single dose) of the same molecule?
A: The value was 51.54 (22.55) hr*ng/mL/mg.

Q: What about the “CL/F, Geometric Mean (CV%)” value ([1]; Black, n 10, single dose) of the same molecule?
A: Its value is 19.40 (22.55) L/hr.

Q: What about the “Dose normalized AUC0-t … (CV%)” value ([1]; Black, n 13, single dose) of the same molecule?
A: Its value is 46.51 (23.98) hr*ng/mL/mg.

Q: What about the “Dose normalized Cmax … (CV%)” value ([1]; Black, n 13, single dose) of the same molecule?
A: Its value is 1.12 (26.07) ng/mL/mg.

Q: And the “Dose normalized AUC0-inf, GLS Mean” value ([1]; Black, single dose)?
A: Its value is 52.05 ng·h/mL/mg.

Q: And the “Dose normalized AUC0-t, GLS Mean” value ([1]; Black, single dose)?
A: Its value is 47.72 ng·h/mL/mg.

Q: And the “Dose normalized Cmax, GLS Mean” value ([1]; Black, single dose)?
A: Its value is 1.19 ng/mL/mg.

Q: What about the “CL/F, GLS Mean” value ([1]; Black, single dose, ANOVA) of the same molecule?
A: The value was 19.40 L/h.

Q: And the “CL/F, Ratio of GLS means” value ([1]; Black/Caucasian)?
A: The value was 0.85.

Q: And the “Dose normalized AUC0-inf, Ratio of GLS means” value ([1]; Black/Caucasian)?
A: Its value is 1.2.

Q: What about the “Dose normalized AUC0-t, Ratio of GLS means” value ([1]; Black/Caucasian) of the same molecule?
A: Its value is 1.1.

Q: What about the “Dose normalized Cmax, Ratio of GLS means” value ([1]; Black/Caucasian) of the same molecule?
A: Its value is 1.0.

Q: What about the “Vz/F, Ratio of GLS means” value ([1]; Black/Caucasian) of the same molecule?
A: The value was 1.1.

Q: And the “t1/2, Ratio of GLS means” value ([1]; Black/Caucasian)?
A: Its value is 1.3.

Q: And the “Dose normalized AUC0-inf … (CV%)” value ([1]; Caucasian, n 6 (5 mg group not included), single dose)?
A: Its value is 43.62 (23.48) hr*ng/mL/mg.

Q: What about the “CL/F, Geometric Mean (CV%)” value ([1]; Caucasian, n 6, single dose) of the same molecule?
A: The value was 22.92 (23.48) L/hr.

Q: And the “Dose normalized AUC0-t … (CV%)” value ([1]; Caucasian, n 7, single dose)?
A: Its value is 42.59 (28.57) hr*ng/mL/mg.

Q: What about the “Dose normalized Cmax … (CV%)” value ([1]; Caucasian, n 7, single dose) of the same molecule?
A: Its value is 1.17 (30.17) ng/mL/mg.

Q: And the “Dose normalized AUC0-inf, GLS Mean” value ([1]; Caucasian, single dose)?
A: The value was 43.13 ng·h/mL/mg.

Q: And the “Dose normalized AUC0-t, GLS Mean” value ([1]; Caucasian, single dose)?
A: Its value is 42.52 ng·h/mL/mg.

Q: And the “Dose normalized Cmax, GLS Mean” value ([1]; Caucasian, single dose)?
A: Its value is 1.16 ng/mL/mg.

Q: What about the “CL/F, GLS Mean” value ([1]; Caucasian, single dose, ANOVA) of the same molecule?
A: The value was 22.92 L/h.

Q: What about the Vd/F ([1]; Asian, n 24, single dose, read-out: Vz/F, Geometric Mean (CV%)) of the same molecule?
A: Its Vd/F is 1020 L.

Q: And the half-life ([1]; Asian, n 24, single dose, read-out: t1/2, Geometric Mean (CV%) (converted))?
A: The half-life was 2120 min.

Q: What about the Vd/F ([1]; Asian, single dose, ANOVA, read-out: Vz/F, GLS Mean) of the same molecule?
A: Its Vd/F is 1020 L.

Q: What about the half-life ([1]; Asian, single dose, ANOVA, read-out: t1/2, GLS Mean (converted)) of the same molecule?
A: Its half-life is 2120 min.

Q: And the Vd/F ([1]; Black, n 10, single dose, read-out: Vz/F, Geometric Mean (CV%))?
A: Its Vd/F is 1420 L.

Q: What about the half-life ([1]; Black, n 10, single dose, read-out: t1/2, Geometric Mean (CV%) (converted)) of the same molecule?
A: Its half-life is 3050 min.

Q: And the Vd/F ([1]; Black, single dose, ANOVA, read-out: Vz/F, GLS Mean)?
A: Its Vd/F is 1420 L.

Q: What about the half-life ([1]; Black, single dose, ANOVA, read-out: t1/2, GLS Mean (converted)) of the same molecule?
A: The half-life was 3050 min.

Q: What about the Vd/F ([1]; Caucasian, n 6, single dose, read-out: Vz/F, Geometric Mean (CV%)) of the same molecule?
A: Its Vd/F is 1350 L.

Q: And the half-life ([1]; Caucasian, n 6, single dose, read-out: t1/2, Geometric Mean (CV%) (converted))?
A: The half-life was 2450 min.

Q: What about the Vd/F ([1]; Caucasian, single dose, ANOVA, read-out: Vz/F, GLS Mean) of the same molecule?
A: Its Vd/F is 1350 L.

Q: What about the half-life ([1]; Caucasian, single dose, ANOVA, read-out: t1/2, GLS Mean (converted)) of the same molecule?
A: The half-life was 2450 min.

Q: What about the “bound to human plasma” value ([2]; human plasma of Caucasian and Chinese, in vitro) of the same molecule?
A: The value was ~ 63%.

Q: What about the fraction unbound ([2]; human, plasma, read-out: free fraction in plasma) of the same molecule?
A: The fraction unbound was 0.373.

Source: article PMC10108266, “Pharmacokinetic characteristics of golidocitinib, a highly selective JAK1 inhibitor, in healthy adult participants” (Frontiers in Immunology, 2023)
